How the values were obtained:
[1] = molecular target: 11-beta-hydroxysteroid dehydrogenase 1 (Homo sapiens, UniProt P28845); test: Inhibition of human 11beta-HSD1 expressed in HEK293 cells after 2 hrs by scintillation proximity assay; type: cell-based
[2] = molecular target: T1, 11-beta-hydroxysteroid dehydrogenase type 2 (Homo sapiens) (UniProt P80365); test: Inhibition of human 11beta-HSD2 at 10 uM by scintillation proximity assay
T1 sequence (whole entry): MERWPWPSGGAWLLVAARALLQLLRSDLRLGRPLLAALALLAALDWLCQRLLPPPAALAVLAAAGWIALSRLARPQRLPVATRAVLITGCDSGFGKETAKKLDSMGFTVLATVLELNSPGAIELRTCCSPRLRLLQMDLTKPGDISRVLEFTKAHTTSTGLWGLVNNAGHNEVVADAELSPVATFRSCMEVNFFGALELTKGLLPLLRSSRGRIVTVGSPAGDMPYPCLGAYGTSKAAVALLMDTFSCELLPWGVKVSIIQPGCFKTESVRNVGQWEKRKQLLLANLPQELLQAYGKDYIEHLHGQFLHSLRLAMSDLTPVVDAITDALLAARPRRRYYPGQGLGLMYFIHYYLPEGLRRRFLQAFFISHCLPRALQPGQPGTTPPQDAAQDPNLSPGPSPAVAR

[3] = molecular target: 11-beta-hydroxysteroid dehydrogenase 1 (Mus musculus, UniProt P50172); test: Inhibition of mouse 11beta-HSD1 expressed in CHO cells after 4 hrs by scintillation proximity assay; type: cell-based
11-beta-hydroxysteroid dehydrogenase 1 (Mus musculus, UniProt P50172), sequence (P50172 whole entry): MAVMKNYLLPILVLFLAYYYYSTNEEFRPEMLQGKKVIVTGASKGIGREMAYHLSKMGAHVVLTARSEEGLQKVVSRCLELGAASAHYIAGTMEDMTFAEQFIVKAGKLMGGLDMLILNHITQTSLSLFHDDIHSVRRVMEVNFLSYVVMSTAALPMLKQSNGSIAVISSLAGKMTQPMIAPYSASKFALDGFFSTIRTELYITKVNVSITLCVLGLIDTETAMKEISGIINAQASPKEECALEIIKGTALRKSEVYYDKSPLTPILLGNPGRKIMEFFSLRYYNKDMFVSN

Mus musculus [4] = test: Inhibition of HSD1 in C57BL/6 mouse adipose tissue at 10 mg/kg, ip; type: functional; settings: C57BL/6, Adipose tissue, route intraperitoneal
Mus musculus [5] = test: Inhibition of HSD1 in C57BL/6 mouse brain at 10 mg/kg, ip; type: functional; settings: C57BL/6, Brain, route intraperitoneal
Mus musculus [6] = test: Inhibition of HSD1 in C57BL/6 mouse kidney at 10 mg/kg, ip; type: functional; settings: C57BL/6, Kidney, route intraperitoneal
Mus musculus [7] = test: Inhibition of HSD1 in C57BL/6 mouse liver at 10 mg/kg, ip; type: functional; settings: C57BL/6, Liver, route intraperitoneal

11-beta-hydroxysteroid dehydrogenase 1 (Homo sapiens, UniProt P28845), sequence (P28845 whole entry): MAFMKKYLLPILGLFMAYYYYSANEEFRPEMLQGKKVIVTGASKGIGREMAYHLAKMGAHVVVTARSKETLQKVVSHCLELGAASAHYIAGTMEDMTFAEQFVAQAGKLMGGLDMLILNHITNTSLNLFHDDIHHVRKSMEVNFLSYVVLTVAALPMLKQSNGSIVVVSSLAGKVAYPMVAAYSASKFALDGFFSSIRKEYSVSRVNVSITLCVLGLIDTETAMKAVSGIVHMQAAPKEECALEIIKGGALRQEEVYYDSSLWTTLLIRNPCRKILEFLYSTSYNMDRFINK

| Structure (SMILES) | IC50 [1] [µM] | inhibition [2] [%] | also measured |
| --- | --- | --- | --- |
| CCN1CCN(C(=O)C2(c3ccc(F)cc3)CCCC2)CC1 | 12 | 0 | – |
| O=C(N1CCN(S(=O)(=O)c2ccccc2)CC1)C12CC3CC(CC(C3)C1)C2 | > 100 | 35 | – |
| N#CC(c1ccccc1)N1CCN(C(=O)C23CC4CC(CC(C4)C2)C3)CC1 (stereo not given) | 24 | 39 | – |
| CCN1CCN(C(=O)C2CC2)CC1 | > 100 | 0 | – |
| CCN1CCN(C(=O)C2CCC(C(C)(C)C)CC2)CC1 (stereo not given) | 20 | 0 | IC50 [3]: 1.2 µM |
| O=C(N1CCN(Cc2ccncc2)CC1)C12CC3CC(CC(C3)C1)C2 | 7.2 | 0 | – |
| O=C(N1CCN(CCc2ccccc2)CC1)C12CC3CC(CC(C3)C1)C2 | 47 | 0 | – |
| CCN1CCN(C(=O)CC2CCCCC2)CC1 | > 100 | 40 | – |
| CCN1CCN(C(=O)c2ccccc2)CC1 | > 100 | 0 | – |
| CCN1CCN(C(=O)CCC2CCCCC2)CC1 | 48 | 0 | – |
| Cc1ccc(C23CC4CC(CC(C(=O)N5CCN(CCc6ccccc6)CC5)(C4)C2)C3)cc1 | 1.9 | 53 | – |
| CCN1CCN(C(=O)Cc2ccccc2)CC1 | 7.2 | 11 | – |
| O=C(N1CCCc2ccccc21)C12CC3CC(CC(C3)C1)C2 | 1.86 | 0 | IC50 [3]: 0.481 µM |
| Cc1ccc(C23CC4CC(CC(C(=O)N5CCN(Cc6ccncc6)CC5)(C4)C2)C3)cc1 | 8.1 | 0 | – |
| CCN1CCN(C(=O)C2CC3CCC2C3)CC1 (stereo not given) | 44 | 0 | – |
| Cc1ccc(C23CC4CC(CC(C(=O)N5CCN(S(=O)(=O)Cc6ccccc6)CC5)(C4)C2)C3)cc1 | 7.7 | 26 | – |
| CCN1CCN(C(=O)C2=C(C)c3ccccc3C2)CC1 | 15 | 0 | – |
| O=C(N1CCN(S(=O)(=O)Cc2ccccc2)CC1)C12CC3CC(CC(C3)C1)C2 | 13 | 39 | – |
| CCN1CCN(C(=O)CC23CC4CC(CC(C4)C2)C3)CC1 | 4.1 | 1 | – |
| CCN1CCN(C(=O)C2CCCCC2)CC1 | 53 | 0 | – |
| CCN1CCN(C(=O)C(C)(C)C)CC1 | > 100 | 0 | – |
| Cc1ccc(C23CC4CC(CC(C(=O)N5CCN(S(=O)(=O)c6ccccc6)CC5)(C4)C2)C3)cc1 | 64 | 48 | – |
| O=C(N1CCN(Cc2ccccc2)CC1)C12CC3CC(CC(C3)C1)C2 | 7.2 | 7 | – |
| Cc1ccc(C23CC4CC(CC(C(=O)N5CCN(Cc6ccccc6)CC5)(C4)C2)C3)cc1 | 1.5 | 80 | – |
| O=C(N1CCc2ccccc2C1)C12CC3CC(CC(C3)C1)C2 | 5.6 | – | – |
| Cc1ccc(C23CC4CC(CC(C(=O)N5CCN(C(C#N)c6ccccc6)CC5)(C4)C2)C3)cc1 (stereo not given) | 2.1 | 48 | – |
| O=C(c1ccccc1)N1CCN(C(=O)C23CC4CC(CC(C4)C2)C3)CC1 | > 100 | 20 | – |

Further lines, with some results ahead:

| IC50 [1] [µM] | inhibition [2] [%] | Structure (SMILES) | also measured |
| --- | --- | --- | --- |
| 1.47 | 31 | O=C(N1CCN(CCO)CC1)C12CC3CC(CC(C3)C1)C2 | IC50 [3]: 0.494 µM |
| 7.3 | – | Cc1ccc(C23CC4CC(CC(C(=O)N5CCN(c6ccccc6)CC5)(C4)C2)C3)cc1 | – |
| 8.2 | 31 | O=C(N1CCNCC1)C12CC3CC(CC(C3)C1)C2 | – |
| 0.6 | 51 | CCN1CCN(C(=O)C23CC4CC(C2)CC(c2ccc(OC)cc2)(C4)C3)CC1 | – |
| 0.498 | 40 | Cc1ccc(C23CC4CC(CC(C(=O)N5CCN(CCO)CC5)(C4)C2)C3)cc1 | IC50 [3]: 0.043 µM |
| 0.756 | 11 | CCN1CCN(C(=O)C23CC4CC(CC(C4)C2)C3)CC1 | IC50 [3]: 0.3 µM |
| > 100 | 0 | O=C(N1CCN(c2ccccc2)CC1)C12CC3CC(CC(C3)C1)C2 | – |
| 0.498 | 37 | O=C(N1CCCC1)C12CC3CC(CC(C3)C1)C2 | – |
| 12 | 7 | COCCN1CCN(C(=O)C23CC4CC(CC(C4)C2)C3)CC1 | – |
| 0.193 | 0 | O=C(N1CCCCC1)C12CC3CC(CC(C3)C1)C2 | IC50 [3]: 0.134 µM |
| 20 | 45 | CC(C)C(C#N)N1CCN(C(=O)C23CC4CC(CC(C4)C2)C3)CC1 (stereo not given) | – |
| 0.2 | 39 | O=C(C1C2CC3CC(C2)CC1C3)N1CCCCC1 (stereo not given) | – |
| 7.3 | 9 | O=C(N1CCCCC1)C12CC3CC(CC(O)(C3)C1)C2 | – |
| 36 | 0 | Cc1ccc(C23CC4CC(CC(C(=O)N5CCN(C(=O)c6ccccc6)CC5)(C4)C2)C3)cc1 | – |
| 0.7 | 13 | CN1CCN(C(=O)C23CC4CC(CC(C4)C2)C3)CC1 | – |
| 2.1 | 41 | COCCN1CCN(C(=O)C23CC4CC(C2)CC(c2ccc(C)cc2)(C4)C3)CC1 | – |
| 1 | 0 | CCN1CCN(C(=O)C23CC4CC(CC(Cc5ccccc5)(C4)C2)C3)CC1 | – |
| 10 | 56 | Cc1ccc(C23CC4CC(CC(C(=O)N5CCN(C(C#N)C(C)C)CC5)(C4)C2)C3)cc1 (stereo not given) | – |
| 53 | – | CCN1CCN(C(=O)C23CC4CC(CC(O)(C4)C2)C3)CC1 | – |
| 0.846 | 0 | O=C(N1CCC2CCCCC2C1)C12CC3CC(CC(C3)C1)C2 (stereo not given) | IC50 [3]: 0.23 µM |
| 0.08 | 0 | Cc1ccc(C23CC4CC(CC(C(=O)N5CCN(C)CC5)(C4)C2)C3)cc1 | inhibition in vivo at 10 mg/kg (Mus musculus [4]): 54%; inhibition in vivo at 10 mg/kg (Mus musculus [5]): 39%; IC50 [3]: 0.081 µM; inhibition in vivo at 10 mg/kg (Mus musculus [6]): 0%; inhibition in vivo at 10 mg/kg (Mus musculus [7]): 63% |

Reference: ChEMBL document CHEMBL1139191, “Discovery and biological evaluation of adamantyl amide 11beta-HSD1 inhibitors” (Bioorg Med Chem Lett, 2007)
